Laboratory results as given in patent US11325892B2, “Compounds and methods for treating cancer” (Mayo Foundation for Medical Education and Research, priority 2014, dated 2022).

Legend:
[1] = system: FTC cells; experiment: Proliferative dose response of thyroid cells; format: cell-based; conditions: 72H treatment
Description: (§1) Cells were seeded at 5,000 cells/well in clear-bottom 96-well plates in triplicate in Maintenance Media. Drug treatment was applied at a concentration of 1:1000 in reduced serum (3%) Maintenance Media. After 72 hours, cells were washed with PBS, and stored at −80° C. prior to analysis using CyQuant® Proliferation Analysis Kit (Invitrogen) as per manufacturers' protocol for relative fluorescence units. Alternatively, cells were plated 2×10^5/well in 12-well plates (Midwest Scientific) in triplicate prior to drug treatment. After 120 hour treatment, cell number was established using a Coulter Particle Counter (Beckman). Or, cells were plated (0.5 or 1×10^5/well) in 24-well plates (Midwest Scientific), 3×. After 72 hour treatment, cell number established using Coulter Particle Counter (Beckman). Oleic acid-albumin (Sigma Aldrich) was added to media at 5 μM, and was applied adjuvant to drug treatment. Drug stocks were prepared in DMSO (Sigma) at 1000×. EC50 dosing per cell line was calculated using CalcuSyn® analytical software.
(§2) The efficacy of pharmacologic inhibition of this enzyme on tumor cell proliferation after a 72H treatment was determined, using A939572-a commercially available small molecule SCD1 inhibitor (Xin Z, Zhao H, Serby M D, Liu B, Liu M, Szczepankiewicz B G, Nelson L T, Smith H T, Suhar T S, Janis R S, Cao N, Camp H S, Collins C A, Sham H L, Surowy T K, Liu G. Discovery of piperidine-aryl urea-based stearoyl-CoA desaturase 1 inhibitors. Bioorg Med Chem Lett. 2008; 18(15):4298-302). […] Despite conspicuous SCD1 expression in 4 of the 5 FTC cells tested, no response to A939572 was observed (FIG. 10D).

[2] = system: PTC cells; experiment: Proliferative dose response of thyroid cells; format: cell-based; conditions: 72H treatment; 2/5 PTC cells at high doses
Description: as §1, §2

[3] = system: NT or FA cells; experiment: Proliferative dose response of thyroid cells; format: cell-based; conditions: 72H treatment
Description: as §1, §2

[4] = system: A498, ACHN, and Caki1 cell lines; experiment: Oleic acid (OA) rescue assay of cell proliferation in ccRCC cells; format: cell-based; conditions: EC50 dose of compound with OA (5 μg/μL); all three cell lines
Description: as §1
A498, ACHN, and Caki1 cell lines were treated with the EC50 dose of each MF-438, ChemBL375265, SSI-1, SSI-4, SSI-3, and SSI-2 with or without concomitant application of OA (5 μg/μL). […] Representative images of A498 cell morphology and density treated with each compound +/−OA are shown in (FIG. 2B).

[5] = system: THJ16T ATC cell xenograft; experiment: THJ16T xenograft model; format: in vivo, female athymic nu/nu mice
Description: Formalin-fixed, paraffin-embedded subject tissues were mounted on slides, blocked with Diluent (DakoCytomation) for 30 min, and then probed for SCD (Sigma-Aldrich, #HPA012107). IHC scoring was performed as previously described (von Roemeling C A, Marlow L A, Wei J J, et al. Stearoyl-CoA desaturase 1 is a novel molecular therapeutic target for clear cell renal cell carcinoma. Clin Cancer Res. May 1 2013; 19(9):2368-2380). Cases where insufficient tumor tissue presented were excluded. 20× images were obtained using Scanscope XT and Imagescope software.
1×10^6 THJ16T ATC cells were subcutaneously injected in female athymic nu/nu mice (Harlan Laboratories). Treatment was initiated once tumor volumes reached 50-100 mm^3. MF-438 was suspended in 0.5% carboxymethyl-cellulose containing strawberry drink flavoring(0.1 g/mL) in sterilized H2O at 25 mg/kg in a 100 μl dose, and administered via oral gavage once daily. Carfilzomib was solubilized in DMSO (4% of FC), suspended in 100% corn oil at 4 mg/kg per 50 uL dose and administered via intraperitoneal injection twice weekly on consecutive days. Tumor volume(0.5236[L*W*H]) and body weight were measured 2×/week. N=10 mice/group.
MF-438 was tested in combination with carfilzomib in vivo in a THJ16T xenograft model. […] J Clin Endocrinol Metab. 2010; 95(12):5338-47). […] Saline was administered as necessary. These adverse events resolved 24-48 hours after the second administration of carfilzomib. […] However, no other significant adverse events were observed. […] IHC analysis of tumors resected from each treatment group was performed.

Row | SMILES | proliferative response [1] | proliferative response [2] | proliferative response [3] | rescue of cell proliferation with OA [4] | tumor response / mean tumor volume course ([5]; THJ16T xenograft) | adverse events ([5]; mice bearing THJ16T xenograft) | survivin expression (IHC) ([5]; mouse, in vivo) | CD31 (IHC), tumor vascularization ([5]; versus placebo control) | cleaved caspase-3 (IHC) ([5]; versus placebo control, only the combination group achieved statistical significance) | HERPUD1 (IHC), marker for ER stress ([5]; versus placebo control, statistically significant combinatorial values)
1 | CNC(=O)c1cccc(NC(=O)N2CCC(Oc3ccccc3Cl)CC2)c1 [A939572] | no response | minimal response | No response | – | – | – | – | – | – | –
2 | Cc1nnc(-c2ccc(N3CCC(Oc4ccccc4C(F)(F)F)CC3)nn2)s1 [MF-438, 2-methyl-5-(6-(4-(2-(trifluoromethyl)phenoxy)piperidin-1-yl)pyridazin-3-yl)-1,3,4-thiadiazole] | – | – | – | Near total rescue of cell proliferation | no tumor response | Discharge from the eye and squinting | induced survivin expression | trend toward decreased CD31 | increased cleaved caspase-3 | Increased HERPUD1
